1 compound from US20240058283A1, “THE MODE OF ACTION OF N-MeDCPA ON TRPC CHANNELS” (West Virginia University Board of Governors on Behalf of …, priority 2022, published 2024) can be followed below.

Read-outs that look alike come from different tables or passages of the source.

One experiment addresses T1, TRPC7 (Homo sapiens, UniProt Q9HCX4).
T1 construct: expressed in transfected cells; host or cells: HEK293 (transient transfection)
T1 sequence (Q9HCX4 1-862): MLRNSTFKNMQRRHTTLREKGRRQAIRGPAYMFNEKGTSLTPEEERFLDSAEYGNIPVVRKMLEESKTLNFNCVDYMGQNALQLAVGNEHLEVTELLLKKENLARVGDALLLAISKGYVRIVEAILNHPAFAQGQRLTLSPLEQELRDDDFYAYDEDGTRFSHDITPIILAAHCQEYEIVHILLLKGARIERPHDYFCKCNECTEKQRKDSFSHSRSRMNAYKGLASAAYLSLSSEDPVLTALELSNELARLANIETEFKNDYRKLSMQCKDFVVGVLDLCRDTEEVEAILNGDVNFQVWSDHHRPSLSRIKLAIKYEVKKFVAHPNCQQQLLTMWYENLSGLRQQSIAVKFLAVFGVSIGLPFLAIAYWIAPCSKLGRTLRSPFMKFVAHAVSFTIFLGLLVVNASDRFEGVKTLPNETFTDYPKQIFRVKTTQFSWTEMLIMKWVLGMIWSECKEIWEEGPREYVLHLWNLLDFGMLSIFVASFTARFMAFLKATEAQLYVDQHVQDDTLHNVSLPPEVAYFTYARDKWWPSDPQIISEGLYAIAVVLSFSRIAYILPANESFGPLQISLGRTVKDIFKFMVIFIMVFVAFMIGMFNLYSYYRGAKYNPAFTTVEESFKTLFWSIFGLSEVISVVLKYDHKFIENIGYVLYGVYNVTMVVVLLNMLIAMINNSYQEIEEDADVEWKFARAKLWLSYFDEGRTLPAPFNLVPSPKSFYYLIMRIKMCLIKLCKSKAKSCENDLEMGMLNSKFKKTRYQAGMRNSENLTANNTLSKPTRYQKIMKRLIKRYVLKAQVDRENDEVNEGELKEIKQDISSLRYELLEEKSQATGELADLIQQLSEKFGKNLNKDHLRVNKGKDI
The experiment is described as follows: OAG-induced Ca2+ entry in Fura2-loaded HEK293 cells overexpressing TRPC7. Format: cell-based. The method, then:
Inhibition of DAG-mediated TRPC activation. To determine if ELP-004 (N-MeDCPA) inhibits DAG-induced TRPC activation, HEK293 cells expressing TRPC3, TRPC6 or TRPC7 were loaded with Fura2 and incubated with ELP-004 (0 to 1 mM) for 10 minutes prior to challenging with 1-Oleoyl-2-acetyl-sn-glycerol (OAG), a membrane permeable form of diacylglycerol.
Cell Culture—HEK293 cells were grown in DMEM with 4.5 g/L glucose supplemented with 10% FBS and 1% Gentamycin (Full DMEM media; Thermo-Fisher Scientific, Waltham, MA) at 37° C. and 5% CO2. […]
TRPC activity assay—Cells grown on glass coverslips were incubated in a cation-safe buffer (107 mM NaCl, 7.2 mM KCl, 1.2 mM MgCl2, 11.5 mM Glucose, 20 mM HEPES-NaOH, 1 mM CaCl2), pH 7.2) and loaded with Fura2-acetoxymethylester (Fura2-AM; 2 μM) for 30 min at 24° C. as previously described^10,11. […] Ca^2+/Sr^2+ measurements were taken using a Leica DMI 6000B fluorescence microscope controlled by Slidebook software (Intelligent Imaging Innovations, Denver, CO). Fluorescence emission at 505 nm was monitored in response to excitation at alternating 340 nm and 380 nm wavelengths at a frequency of 0.67 Hz; intracellular Ca^2+ measurements are shown at 340/380 nm ratios obtained from groups of 35-45 single cells. […]

The target of the next experiment is T2, TRPC5 (Homo sapiens, UniProt Q9UL62).
T2 construct: expressed in transfected cells; host or cells: HEK293 (transient transfection)
T2 sequence (Q9UL62 1-973): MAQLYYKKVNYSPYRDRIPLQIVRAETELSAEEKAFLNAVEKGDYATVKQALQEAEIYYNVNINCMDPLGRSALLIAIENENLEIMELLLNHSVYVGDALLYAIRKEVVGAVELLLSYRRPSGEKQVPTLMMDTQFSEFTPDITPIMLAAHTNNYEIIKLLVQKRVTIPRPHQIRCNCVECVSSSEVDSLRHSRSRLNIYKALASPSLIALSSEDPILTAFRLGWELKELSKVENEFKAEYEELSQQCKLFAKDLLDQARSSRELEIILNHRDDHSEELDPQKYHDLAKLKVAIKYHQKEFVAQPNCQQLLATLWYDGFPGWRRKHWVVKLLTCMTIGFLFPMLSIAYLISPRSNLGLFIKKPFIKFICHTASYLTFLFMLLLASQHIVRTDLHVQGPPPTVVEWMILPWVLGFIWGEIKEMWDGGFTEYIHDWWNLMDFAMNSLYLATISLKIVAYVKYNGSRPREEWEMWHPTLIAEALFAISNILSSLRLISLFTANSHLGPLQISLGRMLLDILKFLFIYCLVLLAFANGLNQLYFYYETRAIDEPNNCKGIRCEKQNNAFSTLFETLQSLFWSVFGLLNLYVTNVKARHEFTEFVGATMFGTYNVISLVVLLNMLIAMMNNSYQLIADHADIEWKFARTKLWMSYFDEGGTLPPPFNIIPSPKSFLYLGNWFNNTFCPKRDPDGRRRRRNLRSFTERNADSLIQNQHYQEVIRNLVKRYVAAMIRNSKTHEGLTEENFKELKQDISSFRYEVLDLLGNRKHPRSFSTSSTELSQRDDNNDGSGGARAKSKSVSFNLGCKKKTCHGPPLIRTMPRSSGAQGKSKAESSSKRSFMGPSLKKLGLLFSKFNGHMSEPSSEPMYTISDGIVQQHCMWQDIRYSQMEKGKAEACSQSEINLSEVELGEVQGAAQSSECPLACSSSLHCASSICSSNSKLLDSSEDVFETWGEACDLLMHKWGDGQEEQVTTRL
As to the kind of experiment: FIG. 4 TRPC5 overexpressing cells, fura, OAG in the presence of Ca2+. The conditions noted are these: TRPC5 O/E cells, N=4. Format: cell-based. The text has this:
The assay was done in the presence of Ca^2+. OAG (1-Oleoyl-2-acetyl-sn-glycerol) is a cell permeable DAG analog and directly activates these TRPC channels (i.e. TRPC4 and TRPC5).

As usually defined, the IC50 is the point on the concentration scale where inhibition reaches its midpoint. Consider `CCC(=O)N(C)c1ccc(Cl)c(Cl)c1` [ELP-004, N-(3,4-dichlorophenyl)-N-methylpropanamide], for which the IC50 at TRPC7 (FIG. 5, TRPC O/E cells, OAG, Ca2+ present, read-out: TRPC7 IC50) is 9 nM; at TRPC7 (HEK293 expressing TRPC7, ELP-004 0 to 1 mM for 10 minutes before OAG, FIG. 1D, read-out: IC50, inhibition of OAG-induced Ca2+ entry), 1000 to 2000 nM; on TRPC5 (OAG, Ca2+ present), 11 nM. Further, the “maximal inhibition of TRPC5 against the >50% threshold” value on TRPC5 is “does not reach the threshold of >50% inhibition”.
